# According to patent US11214594B2, “Antimicrobial peptide having synergistic antibacterial effect with antibiotics on multidrug resistant bacteria, and use thereof” (priority 2016, dated 2022):
# Read-outs that look alike come from different tables or passages of the source. Where a SMILES comes first, the peptide text is derived from it.
# Assays:
# MDREC 1229 = assay: microbe, parasite or virus in culture; type: cell-based, Escherichia coli
# Procedure: (§1) For the antibacterial activity, a minimal inhibitory concentration (MIC) of a peptide in which fungus bodies were not split in an MH medium with sufficient nutrients was measured.
# (§2) Specifically, the strains described in the following [Table 2] were purchased and diluted with an MH medium such that the number of bacteria was 2×10^6 colony-forming units (CFUs), 100 μl of each of the diluted strains was aliquoted into a 96-well microtiter plate, and then 100 μl of a peptide solution diluted with the MH medium (solution diluted stepwise at 2: 1) was added to each well.
# MDREC 1238 = type: cell-based, Escherichia coli
# Procedure: as §1, §2
# MDRAB 12036 = type: cell-based, Acinetobacter baumannii
# Procedure: as §1, §2
# MDRAB 12035 = assay: microbe, parasite or virus in culture; type: cell-based, Acinetobacter baumannii
# Procedure: as §1, §2
# A. baumannii [1] = assay: microbe, parasite or virus in culture; type: cell-based, Acinetobacter baumannii
# Procedure: as §1, §2
# MDRST 8009 = type: cell-based, Salmonella typhimurium; settings: agent alone
# Procedure: as §1, §2
# S. epidermidis = assay: microbe, parasite or virus in culture; type: cell-based, Staphylococcus epidermidis
# Procedure: as §1, §2
# MRSA 3126 = type: cell-based, Staphylococcus aureus
# Procedure: as §1, §2
# MRSA 3114 = type: cell-based, Staphylococcus aureus
# Procedure: as §1, §2
# MDRPA 2002 = type: cell-based, Pseudomonas aeruginosa
# Procedure: as §1, §2
# MDRPA 2003 = type: cell-based, Pseudomonas aeruginosa
# Procedure: as §1, §2
# MDRST 8007 = assay: Minimal inhibitory concentration (MIC), single agent; type: cell-based, Salmonella typhimurium; settings: agent alone
# Procedure: as §1, §2
# S. aureus = assay: microbe, parasite or virus in culture; type: cell-based, Staphylococcus aureus
# Procedure: as §1, §2
# E. coli [2] = assay: microbe, parasite or virus in culture; type: cell-based, Escherichia coli
# Procedure: as §1, §2
# S. typhimurium = assay: microbe, parasite or virus in culture; type: cell-based, Salmonella typhimurium
# Procedure: as §1, §2
# A. baumannii [3] = assay: MIC of antimicrobial peptide during combined treatment with antibiotic; type: cell-based, Acinetobacter baumannii
# Procedure: (§3) Specifically, the strains described in [Table 2] were prepared and diluted with an MH medium such that the number of bacteria was 2×10^6 colony-forming units (CFUs) per 1 ml, 100 μl of the diluted strains was each aliquoted into a 96-well microtiter plate, and then 50 μl of a peptide solution diluted with the MH medium from the MIC value (solution diluted stepwise at 2: 1) was added to each well. Thereafter, the MIC value of each mixed solution was determined by diluting the antibiotic solution with the MH medium, adding 50 μl of the diluted solution to each well, and performing an experiment even under a reversed condition.
# E. coli [4] = type: cell-based, Escherichia coli; settings: for Peptide MIC during treatment with erythromycin / Peptide MIC during treatment with linezolid / Peptide MIC during treatment with vancomycin: E. coli
# Procedure: as §3
# E. coli [5] = assay: MIC of antibiotic during combined treatment with antimicrobial peptide; type: cell-based, Escherichia coli; settings: E. coli and A. baumannii; antibiotic MIC with papiliocin
# Procedure: Thereafter, the MIC value of each mixed solution was determined by diluting the antibiotic solution with the MH medium, adding 50 μl of the diluted solution to each well, and performing an experiment even under a reversed condition.
# gram-negative bacteria = assay: MIC, summary statements for gram-negative bacteria; type: cell-based; settings: gram-negative bacteria
# Procedure: as §1, §2
# P. aeruginosa = assay: microbe, parasite or virus in culture; type: cell-based, Pseudomonas aeruginosa
# Procedure: as §1, §2
# gram-positive bacteria = assay: MIC, summary statements for gram-positive bacteria; type: cell-based
# Procedure: as §1, §2
# B. subtilis = assay: microbe, parasite or virus in culture; type: cell-based, Bacillus subtilis
# Procedure: as §1, §2
# [6] = linezolid 32 μg/ml (Conc./MIC 1/8)
# [7] = linezolid 64 μg/ml (Conc./MIC 1/4)
# [8] = vancomycin 512 μg/ml (Conc./MIC 1/2)
# [9] = vancomycin 1024 μg/ml (Conc./MIC 1)
compound,measurement,setting,value
"CC[C@H](C)[C@H](NC(=O)CN)C(=O)NCC(=O)N[C@@H](C)C(=O)N[C@H](C(=O)N[C@@H](CC(C)C)C(=O)N[C@@H](CCCCN)C(=O)N[C@H](C(=O)N[C@@H](CC(C)C)C(=O)N[C@H](C(=O)N[C@H](C(=O)NCC(=O)N[C@@H](CC(C)C)C(=O)N1CCC[C@H]1C(=O)N[C@@H](C)C(=O)N[C@@H](CC(C)C)C(=O)N[C@H](C(=O)N[C@@H](CO)C(=O)N[C@@H](Cc1c[nH]c2ccccc12)C(=O)N[C@H](C(=O)N[C@@H](CCCCN)C(=O)N[C@@H](CCCNC(=N)N)C(=O)N[C@@H](CCCCN)C(=O)N[C@@H](CCCNC(=N)N)C(=O)N[C@@H](CCC(N)=O)C(=O)N[C@@H](CCC(N)=O)C(N)=O)[C@@H](C)CC)[C@@H](C)CC)[C@@H](C)O)[C@@H](C)O)C(C)C)C(C)C [Melittin, reference compound]",Minimal inhibitory concentration MIC,"MDREC 1229; MDREC 1229, agent alone",16 µg/mL
same,Minimal inhibitory concentration MIC,"MDREC 1238; MDREC 1238, agent alone",32 µg/mL
same,Minimal inhibitory concentration MIC,"MDRAB 12036; MDRAB 12036, agent alone",16 µg/mL
same,Minimal inhibitory concentration MIC,"MDRAB 12035; MDRAB 12035, agent alone",8 µg/mL
same,Minimal inhibitory concentration MIC,"A. baumannii [1]; A. baumannii, agent alone",8 µg/mL
same,Minimal inhibitory concentration MIC,MDRST 8009,32 µg/mL
same,Minimal inhibitory concentration MIC,"S. epidermidis; S. epidermidis, agent alone",16 µg/mL
same,Minimal inhibitory concentration MIC,"MRSA 3126; MRSA 3126, agent alone",16 µg/mL
same,Minimal inhibitory concentration MIC,"MRSA 3114; MRSA 3114, agent alone",8 µg/mL
same,Minimal inhibitory concentration MIC,"MDRPA 2002; MDRPA 2002, agent alone",16 µg/mL
same,Minimal inhibitory concentration MIC,"MDRPA 2003; MDRPA 2003, agent alone",16 µg/mL
same,Minimal inhibitory concentration MIC,MDRST 8007,32 µg/mL
"CC[C@H](C)[C@H](NC(=O)CNC(=O)[C@H](CC(=O)O)NC(=O)[C@H](CCCNC(=N)N)NC(=O)[C@@H](NC(=O)[C@H](CC(N)=O)NC(=O)[C@H](CCCNC(=N)N)NC(=O)CNC(=O)[C@@H](NC(=O)[C@H](CCCCN)NC(=O)[C@H](CCC(=O)O)NC(=O)[C@@H](NC(=O)[C@H](CCCCN)NC(=O)[C@H](CCCCN)NC(=O)[C@H](Cc1ccccc1)NC(=O)[C@@H](NC(=O)[C@H](CCCCN)NC(=O)[C@H](Cc1c[nH]c2ccccc12)NC(=O)[C@@H](N)CCCNC(=N)N)[C@@H](C)CC)[C@@H](C)CC)C(C)C)C(C)C)C(=O)N[C@H](C(=O)N[C@@H](CCCCN)C(=O)N[C@@H](C)C(=O)NCC(=O)N1CCC[C@H]1C(=O)N[C@@H](C)C(=O)N[C@H](C(=O)N[C@@H](C)C(=O)N[C@H](C(=O)N[C@H](C(=O)NCC(=O)N[C@@H](CCC(N)=O)C(=O)N[C@@H](C)C(=O)N[C@@H](C)C(=O)N[C@H](C(=O)N[C@H](C(=O)N[C@H](C(=O)N[C@@H](CCCCN)C(N)=O)C(C)C)C(C)C)[C@@H](C)O)C(C)C)C(C)C)C(C)C)[C@@H](C)CC [Papiliocin, reference compound] (H-RWKIFKKIEKVGRNVRDGIIKAGPAVAVVGQAATVVK-NH2; N-terminus and C-terminus assumed)",Minimal inhibitory concentration MIC,S. aureus,>128 µg/mL
same,Minimal inhibitory concentration MIC,MDREC 1229,8 µg/mL
same,"Peptide MIC, single treatment",E. coli [2],8 µg/mL
same,Minimal inhibitory concentration MIC,E. coli [2]; 16 h,8 µg/mL
same,Minimal inhibitory concentration MIC,S. typhimurium,16 µg/mL
same,Peptide MIC during treatment with erythromycin,A. baumannii [3]; erythromycin 4 μg/ml (Conc./MIC 1/8),8 µg/mL
same,Peptide MIC during treatment with erythromycin,A. baumannii [3]; erythromycin 8 μg/ml (Conc./MIC 1/4),4 µg/mL
same,Peptide MIC during treatment with erythromycin,A. baumannii [3]; erythromycin 16 μg/ml (Conc./MIC 1/2),4 µg/mL
same,Peptide MIC during treatment with erythromycin,A. baumannii [3]; erythromycin 32 μg/ml (Conc./MIC 1),0 µg/mL
same,Peptide MIC during treatment with linezolid,A. baumannii [3]; [6],8 µg/mL
same,Peptide MIC during treatment with linezolid,A. baumannii [3]; [7],4 µg/mL
same,Peptide MIC during treatment with linezolid,A. baumannii [3]; linezolid […] (Conc./MIC 1),0 µg/mL
same,Peptide MIC during treatment with linezolid,A. baumannii [3]; linezolid […] (Conc./MIC 1/2),4 µg/mL
same,Peptide MIC during treatment with vancomycin,A. baumannii [3]; [8],2 µg/mL
same,Peptide MIC during treatment with vancomycin,A. baumannii [3]; [9],0 µg/mL
same,Peptide MIC during treatment with vancomycin,A. baumannii [3]; vancomycin […] (Conc./MIC 1/4),2 µg/mL
same,Peptide MIC during treatment with vancomycin,A. baumannii [3]; vancomycin […] (Conc./MIC 1/8),4 µg/mL
same,Peptide MIC during treatment with erythromycin,E. coli [4]; erythromycin 16 μg/ml (Conc./MIC 1/8),4 µg/mL
same,Peptide MIC during treatment with erythromycin,E. coli [4]; erythromycin 32 μg/ml (Conc./MIC 1/4),4 µg/mL
same,Peptide MIC during treatment with erythromycin,E. coli [4]; erythromycin 64 μg/ml (Conc./MIC 1/2),4 µg/mL
same,Peptide MIC during treatment with erythromycin,E. coli [4]; erythromycin […] (Conc./MIC 1),0 µg/mL
same,Peptide MIC during treatment with linezolid,E. coli [4]; [6],8 µg/mL
same,Peptide MIC during treatment with linezolid,E. coli [4]; [7],4 µg/mL
same,Peptide MIC during treatment with linezolid,E. coli [4]; linezolid […] (Conc./MIC 1),0 µg/mL
same,Peptide MIC during treatment with linezolid,E. coli [4]; linezolid […] (Conc./MIC 1/2),4 µg/mL
same,Peptide MIC during treatment with vancomycin,E. coli [4]; [8],2 µg/mL
same,Peptide MIC during treatment with vancomycin,E. coli [4]; [9],0 µg/mL
same,Peptide MIC during treatment with vancomycin,E. coli [4]; vancomycin […] (Conc./MIC 1/4),2 µg/mL
same,Peptide MIC during treatment with vancomycin,E. coli [4]; vancomycin […] (Conc./MIC 1/8),4 µg/mL
same,Synergistic effect on peptide MIC when mixed with antibiotics (in words),E. coli [4]; papiliocin as comparative control (Table 34),does not have a synergistic effect
same,Synergistic effect of combination with the antibiotics (in words),E. coli [5],does not have a great synergistic effect
same,Minimal inhibitory concentration MIC,MDREC 1238,16 µg/mL
same,Antibacterial activity (in words),gram-negative bacteria,very high antibacterial activity
same,Minimal inhibitory concentration MIC,MDRAB 12036,16 µg/mL
same,Minimal inhibitory concentration MIC,MDRAB 12035,8 µg/mL
same,Minimal inhibitory concentration MIC,A. baumannii [1],8 µg/mL
same,"Peptide MIC, peptide alone",A. baumannii [1],8 µg/mL
same,Minimal inhibitory concentration MIC,P. aeruginosa,16 µg/mL
same,Minimal inhibitory concentration MIC,S. epidermidis,>128 µg/mL
same,Minimal inhibitory concentration MIC,MRSA 3126; 3126,>128 µg/mL
same,Minimal inhibitory concentration MIC,MRSA 3114; 3114,>128 µg/mL
same,Antibacterial activity (in words),gram-positive bacteria,very low antibacterial activity
same,Minimal inhibitory concentration MIC,MDRPA 2002,16 µg/mL
same,Minimal inhibitory concentration MIC,MDRPA 2003,16 µg/mL
same,Minimal inhibitory concentration MIC,B. subtilis,>128 µg/mL
